Laboratory results taken from patent US12202835B2, “Substituted aromatic ring-linked dioxinoquinazolines and dioxinoquinolines as kinase inhibitors” (BEIJING SCITECH-MQ PHARMACEUTICALS LIMITED, priority 2018, dated 2025).

What was measured:
MHCC97H cells = experiment: Assay for inhibiting the proliferation of MHCC97H cells (CCK-8); type: cell-based; conditions: Homo sapiens
Procedure, shortened: (§1)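 Cells seeded in 96-well plates overnight, then exposed 72 h to 9 three-fold dilutions of compound (0.25% DMSO final). Viability by CCK-8 (1-2 h at 37° C., OD 450 nm), survival normalized to untreated and cell-free blanks; IC50 by curve fitting.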

c-MET kinase = c-MET kinase (Homo sapiens (Human), UniProt P08581); experiment: Assay of small molecular compounds for inhibiting the activity of c-MET kinase (LANCE TR-FRET); type: biochemical; conditions: read-out: CMET IC50
Procedure, shortened: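 LANCE TR-FRET assay with c-MET at 1 nM final after a 5 min room-temperature preincubation with compound (11-point, 3-fold series, 2500–0.042 nM final, 4% DMSO). ULight-JAK-1 (Tyr1023) peptide (100 nM final) and ATP (10 μM final) reacted 60 min in the dark. Inhibition was taken relative to controls, then IC50 fitted.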

EBC1 cells = experiment: Assay for inhibiting the proliferation of EBC1 cells (CCK-8); type: cell-based; conditions: Homo sapiens, EBC-1
Procedure, shortened: as §1

Ba/F3-AXL cells = experiment: Assay for inhibiting the proliferation of Ba/F3-AXL cells (CCK-8); type: cell-based; conditions: 72 hours of incubation, medium with 100 ng/mL hGas6, CCK-8
Experimental: The values were then imported into Graphpad Prism 5 software for curve fitting, and IC50 was calculated.

TRKA kinase = TRKA kinase (Homo sapiens (Human), UniProt P04629); experiment: Assay of small molecular compounds for inhibiting the activity of TRKA kinase (LANCE TR-FRET); type: biochemical
Procedure, shortened: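 LANCE TR-FRET with ULight-TK peptide; compounds pre-incubated 5 min with TRKA (2× solution 2 nM), then substrate/ATP added (4× mix: 400 nM peptide, 40 μM ATP). Reaction 60 min at room temperature in dark, 1% DMSO final; stopped, detection developed 60 min, signal read.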

Chain of TRKA kinase (P04629 33-796): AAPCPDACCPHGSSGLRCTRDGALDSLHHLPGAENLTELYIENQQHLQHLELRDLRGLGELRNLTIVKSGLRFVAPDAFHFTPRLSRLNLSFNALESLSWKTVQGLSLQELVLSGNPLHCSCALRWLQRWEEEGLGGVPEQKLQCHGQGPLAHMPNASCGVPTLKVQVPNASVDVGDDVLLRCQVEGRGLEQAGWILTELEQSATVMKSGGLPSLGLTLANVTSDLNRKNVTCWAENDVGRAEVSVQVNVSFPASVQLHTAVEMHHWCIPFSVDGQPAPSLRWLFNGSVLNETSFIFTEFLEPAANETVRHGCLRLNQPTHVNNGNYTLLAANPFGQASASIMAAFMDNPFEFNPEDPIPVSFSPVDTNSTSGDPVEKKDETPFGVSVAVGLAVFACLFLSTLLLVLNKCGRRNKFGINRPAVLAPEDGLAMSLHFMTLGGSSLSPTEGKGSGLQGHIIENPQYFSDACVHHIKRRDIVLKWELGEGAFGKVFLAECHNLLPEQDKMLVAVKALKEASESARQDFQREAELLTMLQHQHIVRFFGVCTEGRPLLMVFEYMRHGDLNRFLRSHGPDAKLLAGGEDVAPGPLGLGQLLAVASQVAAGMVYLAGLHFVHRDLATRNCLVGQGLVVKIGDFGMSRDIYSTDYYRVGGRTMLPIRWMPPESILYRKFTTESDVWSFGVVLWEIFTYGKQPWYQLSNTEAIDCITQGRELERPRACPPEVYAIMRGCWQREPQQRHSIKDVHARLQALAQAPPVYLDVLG
Chain of c-MET kinase (P08581 25-1390): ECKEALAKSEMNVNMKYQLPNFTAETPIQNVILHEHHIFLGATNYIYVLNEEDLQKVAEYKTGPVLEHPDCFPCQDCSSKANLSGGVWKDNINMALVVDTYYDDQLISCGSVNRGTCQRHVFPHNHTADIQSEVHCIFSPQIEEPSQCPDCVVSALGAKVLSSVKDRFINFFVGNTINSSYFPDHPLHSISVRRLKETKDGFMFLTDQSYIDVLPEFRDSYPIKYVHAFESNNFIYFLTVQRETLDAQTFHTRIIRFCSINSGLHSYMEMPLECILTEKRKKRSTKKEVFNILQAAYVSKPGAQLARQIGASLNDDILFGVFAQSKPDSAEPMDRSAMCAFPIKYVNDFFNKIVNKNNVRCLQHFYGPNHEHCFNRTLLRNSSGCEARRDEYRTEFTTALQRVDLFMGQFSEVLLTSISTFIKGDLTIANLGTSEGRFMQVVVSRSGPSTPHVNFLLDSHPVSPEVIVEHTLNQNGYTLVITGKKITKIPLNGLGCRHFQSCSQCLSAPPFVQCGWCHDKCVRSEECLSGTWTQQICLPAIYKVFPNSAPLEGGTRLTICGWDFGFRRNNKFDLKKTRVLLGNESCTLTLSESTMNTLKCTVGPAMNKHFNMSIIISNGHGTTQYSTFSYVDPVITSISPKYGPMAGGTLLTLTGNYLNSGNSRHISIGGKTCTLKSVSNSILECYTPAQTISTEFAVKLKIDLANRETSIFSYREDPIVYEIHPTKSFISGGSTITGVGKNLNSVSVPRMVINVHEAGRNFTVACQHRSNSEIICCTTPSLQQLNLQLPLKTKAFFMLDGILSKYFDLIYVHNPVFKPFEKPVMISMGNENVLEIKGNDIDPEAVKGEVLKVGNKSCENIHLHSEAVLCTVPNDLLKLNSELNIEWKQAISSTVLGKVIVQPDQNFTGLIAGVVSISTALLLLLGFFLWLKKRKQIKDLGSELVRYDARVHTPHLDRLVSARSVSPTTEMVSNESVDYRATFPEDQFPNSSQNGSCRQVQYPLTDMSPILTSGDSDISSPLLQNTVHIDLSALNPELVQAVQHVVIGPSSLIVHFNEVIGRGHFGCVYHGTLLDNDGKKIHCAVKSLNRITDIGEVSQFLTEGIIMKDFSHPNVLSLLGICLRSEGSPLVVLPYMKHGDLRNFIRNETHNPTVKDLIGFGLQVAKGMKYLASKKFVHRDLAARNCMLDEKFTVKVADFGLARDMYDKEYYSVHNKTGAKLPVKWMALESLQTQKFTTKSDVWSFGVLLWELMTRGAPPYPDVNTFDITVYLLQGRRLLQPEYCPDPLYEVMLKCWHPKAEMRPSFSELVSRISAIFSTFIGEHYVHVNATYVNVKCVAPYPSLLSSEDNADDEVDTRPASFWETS

SMILES | IC50 (MHCC97H cells) [nM] | IC50 (c-MET kinase) [nM] | IC50 (EBC1 cells) [nM] | IC50 (Ba/F3-AXL cells) [nM] | IC50 (TRKA kinase) [nM]
COc1cc2ncnc(Oc3ccc(NC(=O)c4cccn(-c5ccc(F)cc5)c4=O)cc3F)c2c2c1OCCO2 [Example 1, N-(3-fluoro-4-((5-methoxy-2,3-dihydro-[1,4]dioxino[2,3-f]quinazolin-10-yl)oxy)phenyl)-1-(4-fluorophenyl)-2-oxo-1,2-dihydropyridine-3-carboxamide] | ≤ 50 | ≤ 50 | 50 to 200 | < 50 | < 50
CCOc1ccn(-c2ccc(F)cc2)c(=O)c1C(=O)Nc1ccc(Oc2ncnc3cc(OC)c4c(c23)OCCO4)c(F)c1 [Example 3, N-(3-fluoro-4-((5-methoxy-2,3-dihydro-[1,4]dioxino[2,3-f]quinazolin-10-yl)oxy)phenyl)-1-(4-fluorophenyl)-4-ethoxy-2-oxo-1,2-dihydropyridine-3-carboxamide] | 50 to 200 | ≤ 50 | 50 to 200 | – | < 50
COc1cn(-c2ccc(F)cc2C)nc1C(=O)Nc1ccc(Oc2ncnc3cc(OCCCN4CCOCC4)c4c(c23)OCCO4)c(F)c1 [Example 11, 1-(4-fluoro-2-methylphenyl)-N-(3-fluoro-4-((5-(3-morpholinopropoxy)-2,3-dihydro-[1,4]dioxino[2,3-f]quinazolin-10-yl)oxy)phenyl)-4-methoxy-1H-pyrazole-3-carboxamide] | 200 to 1000 | ≤ 50 | 200 to 1000 | – | –
CCOc1cn(-c2ccc(F)cc2C)nc1C(=O)Nc1ccc(Oc2ncnc3cc(OCCCN4CCOCC4)c4c(c23)OCCO4)c(F)c1 [Example 12, 1-(4-fluoro-2-methylphenyl)-N-(3-fluoro-4-((5-(3-morpholinopropoxy)-2,3-dihydro-[1,4]dioxino[2,3-f]quinazolin-10-yl)oxy)phenyl)-4-ethoxy-1H-pyrazole-3-carboxamide] | 50 to 200 | ≤ 50 | 200 to 1000 | – | –
COCCOc1cc2nccc(Oc3ccc(NC(=O)c4cn(C(C)C)c(=O)n(-c5ccc(F)cc5)c4=O)cc3F)c2c2c1OCCO2 [Example 43, N-(3-fluoro-4-((5-(2-methoxyethoxy)-2,3-dihydro-[1,4]dioxino[2,3-f]quinolin-10-yl)oxy)phenyl)-3-(4-fluorophenyl)-1-isopropyl-2,4-dioxo-1,2,3,4-tetrahydropyrimidine-5-carboxamide] | – | ≤ 50 | – | < 50 | 50 to 500
CCOc1ccn(-c2ccc(F)cc2)c(=O)c1C(=O)Nc1ccc(Oc2ccnc3cc(OCCCN4CCCC4)c4c(c23)OCCO4)c(F)c1 [Example 52, N-(4-((5-(3-(pyrrolidin-1-yl)propoxy)-2,3-dihydro-[1,4]dioxino[2,3-f]quinolin-10-yl)oxy)-3-fluorophenyl)-4-ethoxy-1-(4-fluorophenyl)-2-oxo-1,2-dihydropyridine-3-carboxamide] | ≤ 50 | ≤ 50 | – | < 50 | < 50
CCOc1ccn(-c2ccc(F)cc2)c(=O)c1C(=O)Nc1ccc(Oc2ccnc3cc(OCC(C)C)c4c(c23)OCCO4)c(F)c1 [Example 58, N-(4-((5-(isobutyloxy)-2,3-dihydro-[1,4]dioxino[2,3-f]quinolin-10-yl)oxy)-3-fluorophenyl)-4-ethoxy-1-(4-fluorophenyl)-2-oxo-1,2-dihydropyridine-3-carboxamide] | – | ≤ 50 | – | < 50 | 50 to 500
CCOc1ccn(-c2ccc(F)cc2)c(=O)c1C(=O)Nc1ccc(Oc2ccnc3cc(OCC4CC4)c4c(c23)OCCO4)c(F)c1 [Example 59, N-(4-((5-(cyclopropylmethoxy)-2,3-dihydro-[1,4]dioxino[2,3-f]quinolin-10-yl)oxy)-3-fluorophenyl)-4-ethoxy-1-(4-fluorophenyl)-2-oxo-1,2-dihydropyridine-3-carboxamide] | – | ≤ 50 | – | < 50 | 50 to 500
CC(=O)N1CCN(CCCOc2cc3nccc(Oc4ccc(NC(=O)c5cn(C(C)C)c(=O)n(-c6ccc(F)cc6)c5=O)cc4F)c3c3c2OCCO3)CC1 [Example 75, N-(3-fluoro-4-((5-(3-(4-acetylpiperazin-1-yl)propoxy)-2,3-dihydro-[1,4]dioxino[2,3-f]quinolin-10-yl)oxy)phenyl)-3-(4-fluorophenyl)-1-isopropyl-2,4-dioxo-1,2,3,4-tetrahydropyrimidine-5-carboxamide] | – | ≤ 50 | – | – | < 50
CC(C)n1cc(C(=O)Nc2ccc(Oc3ccnc4cc(OCCCN5CCS(=O)(=O)CC5)c5c(c34)OCCO5)c(F)c2)c(=O)n(-c2ccc(F)cc2)c1=O [Example 76, N-(3-fluoro-4-((5-(3-(1,1-dioxidothiomorpholino)propoxy)-2,3-dihydro-[1,4]dioxino[2,3-f]quinolin-10-yl)oxy)phenyl)-3-(4-fluorophenyl)-1-isopropyl-2,4-dioxo-1,2,3,4-tetrahydropyrimidine-5-carboxamide] | – | 50 to 500 | – | < 50 | < 50
CC(C)n1cc(C(=O)Nc2ccc(Oc3ccnc4cc(OCCCN5CCCC5)c5c(c34)OCCO5)c(F)c2)c(=O)n(-c2ccc(F)cc2)c1=O [Example 77, N-(3-fluoro-4-((5-(3-(pyrrolidin-1-yl)propoxy)-2,3-dihydro-[1,4]dioxino[2,3-f]quinolin-10-yl)oxy)phenyl)-3-(4-fluorophenyl)-1-isopropyl-2,4-dioxo-1,2,3,4-tetrahydropyrimidine-5-carboxamide] | – | ≤ 50 | – | < 50 | < 50
CC(C)n1cc(C(=O)Nc2ccc(Oc3ccnc4cc(OCCO)c5c(c34)OCCO5)c(F)c2)c(=O)n(-c2ccc(F)cc2)c1=O [Example 78, N-(3-fluoro-4-((5-(2-hydroxyethoxy)-2,3-dihydro-[1,4]dioxino[2,3-f]quinolin-10-yl)oxy)phenyl)-3-(4-fluorophenyl)-1-isopropyl-2,4-dioxo-1,2,3,4-tetrahydropyrimidine-5-carboxamide] | – | ≤ 50 | – | < 50 | < 50
CC(C)n1cc(C(=O)Nc2ccc(Oc3ccnc4cc(OCCCO)c5c(c34)OCCO5)c(F)c2)c(=O)n(-c2ccc(F)cc2)c1=O [Example 79, N-(3-fluoro-4-((5-(3-hydroxypropoxy)-2,3-dihydro-[1,4]dioxino[2,3-f]quinolin-10-yl)oxy)phenyl)-3-(4-fluorophenyl)-1-isopropyl-2,4-dioxo-1,2,3,4-tetrahydropyrimidine-5-carboxamide] | – | ≤ 50 | – | – | < 50
CC(C)Oc1cc2nccc(Oc3ccc(NC(=O)c4cn(C)c(=O)n(-c5ccc(F)cc5)c4=O)cc3F)c2c2c1OCCO2 [Example 88, N-(3-fluoro-4-((5-isopropoxy-2,3-dihydro-[1,4]dioxino[2,3-f]quinolin-10-yl)oxy)phenyl)-3-(4-fluorophenyl)-1-methyl-2,4-dioxo-1,2,3,4-tetrahydropyrimidine-5-carboxamide] | – | ≤ 50 | – | < 50 | 50 to 500
Cn1cc(C(=O)Nc2ccc(Oc3ccnc4cc(OC5CCOC5)c5c(c34)OCCO5)c(F)c2)c(=O)n(-c2ccc(F)cc2)c1=O (centres unmarked) [Example 90, N-(3-fluoro-4-((5-((tetrahydrofuran-3-yl)oxy)-2,3-dihydro-[1,4]dioxino[2,3-f]quinolin-10-yl)oxy)phenyl)-3-(4-fluorophenyl)-1-methyl-2,4-dioxo-1,2,3,4-tetrahydropyrimidine-5-carboxamide] | – | ≤ 50 | – | < 50 | < 50
Cn1cc(C(=O)Nc2ccc(Oc3ccnc4cc(OC5CCOCC5)c5c(c34)OCCO5)c(F)c2)c(=O)n(-c2ccc(F)cc2)c1=O [Example 91, N-(3-fluoro-4-((5-((tetrahydropyran-4-yl)oxy)-2,3-dihydro-[1,4]dioxino[2,3-f]quinolin-10-yl)oxy)phenyl)-3-(4-fluorophenyl)-1-methyl-2,4-dioxo-1,2,3,4-tetrahydropyrimidine-5-carboxamide] | – | ≤ 50 | – | < 50 | < 50
CC(C)n1cc(C(=O)Nc2ccc(Oc3ccnc4cc(OCCCN5CCC(C)(C)CC5)c5c(c34)OCCO5)c(F)c2)c(=O)n(-c2ccc(F)cc2)c1=O [Example 92, N-(3-fluoro-4-((5-(3-(4,4-dimethylpiperidin-1-yl)propoxy)-2,3-dihydro-[1,4]dioxino[2,3-f]quinolin-10-yl)oxy)phenyl)-3-(4-fluorophenyl)-1-isopropyl-2,4-dioxo-1,2,3,4-tetrahydropyrimidine-5-carboxamide] | – | 50 to 500 | – | < 50 | < 50
CC(C)n1cc(C(=O)Nc2ccc(Oc3ccnc4cc(OCCCN5CCC(C)(N)CC5)c5c(c34)OCCO5)c(F)c2)c(=O)n(-c2ccc(F)cc2)c1=O [Example 93, N-(3-fluoro-4-((5-(3-(4-amino-4-methylpiperidin-1-yl)propoxy)-2,3-dihydro-[1,4]dioxino[2,3-f]quinolin-10-yl)oxy)phenyl)-3-(4-fluorophenyl)-1-isopropyl-2,4-dioxo-1,2,3,4-tetrahydropyrimidine-5-carboxamide] | – | ≤ 50 | – | < 50 | < 50
